Test results published in ChEMBL document CHEMBL5291721, “A preclinical secondary pharmacology resource illuminates target-adverse drug reaction associations of marketed drugs” (Nat Commun, 2023).

Columns and labels:
Acetylcholinesterase = Acetylcholinesterase (Homo sapiens, UniProt P22303); assay type: functional
[1] = molecular target: T1, Muscarinic acetylcholine receptor M2 (Homo sapiens, UniProt P08172)
T1 sequence (P08172 whole entry): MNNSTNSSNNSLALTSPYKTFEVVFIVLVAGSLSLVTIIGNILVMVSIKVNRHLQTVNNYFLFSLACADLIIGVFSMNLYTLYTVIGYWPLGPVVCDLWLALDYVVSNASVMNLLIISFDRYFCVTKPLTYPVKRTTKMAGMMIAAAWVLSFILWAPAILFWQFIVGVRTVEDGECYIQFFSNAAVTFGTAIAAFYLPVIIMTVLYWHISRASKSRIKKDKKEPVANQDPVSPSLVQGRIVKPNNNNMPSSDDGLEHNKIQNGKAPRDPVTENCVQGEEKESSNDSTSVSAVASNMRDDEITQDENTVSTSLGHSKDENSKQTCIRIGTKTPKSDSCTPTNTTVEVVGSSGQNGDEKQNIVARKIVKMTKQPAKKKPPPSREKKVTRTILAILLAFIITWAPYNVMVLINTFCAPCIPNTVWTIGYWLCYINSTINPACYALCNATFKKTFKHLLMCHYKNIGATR

D(1A) dopamine receptor = D(1A) dopamine receptor (Homo sapiens, UniProt P21728)
D(3) dopamine receptor = D(3) dopamine receptor (Homo sapiens, UniProt P35462)
Histamine H3 receptor = Histamine H3 receptor (Homo sapiens, UniProt Q9Y5N1)
[2] = molecular target: T2, 5-hydroxytryptamine receptor 1A (Homo sapiens, UniProt P08908)
T2 sequence (P08908 whole entry): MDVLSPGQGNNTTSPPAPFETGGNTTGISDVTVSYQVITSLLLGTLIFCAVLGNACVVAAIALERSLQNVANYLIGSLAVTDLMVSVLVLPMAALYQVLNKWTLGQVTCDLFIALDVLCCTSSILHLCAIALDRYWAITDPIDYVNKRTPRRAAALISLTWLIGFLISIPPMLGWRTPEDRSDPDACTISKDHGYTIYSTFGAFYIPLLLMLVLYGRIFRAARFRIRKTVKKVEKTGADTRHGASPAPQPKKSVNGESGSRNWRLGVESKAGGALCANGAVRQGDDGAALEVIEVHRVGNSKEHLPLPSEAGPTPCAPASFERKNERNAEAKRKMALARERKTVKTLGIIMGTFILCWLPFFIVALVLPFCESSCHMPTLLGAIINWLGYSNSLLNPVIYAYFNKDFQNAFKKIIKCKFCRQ

[3] = molecular target: 5-hydroxytryptamine receptor 2B (Homo sapiens, UniProt P41595); assay type: functional, cell-based
[4] = molecular target: T3, Amine oxidase [flavin-containing] A (Homo sapiens, UniProt P21397); assay type: functional
T3 sequence (P21397 whole entry): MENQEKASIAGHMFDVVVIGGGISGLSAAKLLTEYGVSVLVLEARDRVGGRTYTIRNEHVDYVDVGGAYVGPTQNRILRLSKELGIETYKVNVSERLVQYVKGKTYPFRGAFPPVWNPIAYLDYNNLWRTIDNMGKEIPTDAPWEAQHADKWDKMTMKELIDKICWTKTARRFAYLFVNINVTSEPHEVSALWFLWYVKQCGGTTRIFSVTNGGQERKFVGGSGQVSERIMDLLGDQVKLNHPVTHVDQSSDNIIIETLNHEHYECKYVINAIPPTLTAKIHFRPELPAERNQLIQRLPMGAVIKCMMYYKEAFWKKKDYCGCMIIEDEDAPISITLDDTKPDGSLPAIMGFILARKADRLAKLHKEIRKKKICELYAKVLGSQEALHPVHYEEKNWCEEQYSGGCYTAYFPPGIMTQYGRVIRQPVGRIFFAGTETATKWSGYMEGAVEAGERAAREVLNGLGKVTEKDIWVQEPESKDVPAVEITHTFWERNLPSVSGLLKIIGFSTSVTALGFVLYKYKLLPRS

Mu-type opioid receptor = Mu-type opioid receptor (Homo sapiens, UniProt P35372)
[5] = molecular target: cGMP-inhibited 3',5'-cyclic phosphodiesterase 3A (Homo sapiens, UniProt Q14432); assay type: functional
[6] = molecular target: 3',5'-cyclic-AMP phosphodiesterase 4A (Homo sapiens, UniProt P27815); assay type: functional
[7] = molecular target: T4, Prostaglandin G/H synthase 1 (Homo sapiens, UniProt P23219); assay type: functional
[8] = molecular target: T4, Prostaglandin G/H synthase 1; assay type: functional; remark: listed apart in the source
[9] = molecular target: Sodium-dependent noradrenaline transporter (Homo sapiens, UniProt P23975)
Thromboxane A2 receptor [10] = molecular target: T5, Thromboxane A2 receptor (Homo sapiens, UniProt P21731); assay type: functional, cell-based
T5 sequence (P21731 whole entry): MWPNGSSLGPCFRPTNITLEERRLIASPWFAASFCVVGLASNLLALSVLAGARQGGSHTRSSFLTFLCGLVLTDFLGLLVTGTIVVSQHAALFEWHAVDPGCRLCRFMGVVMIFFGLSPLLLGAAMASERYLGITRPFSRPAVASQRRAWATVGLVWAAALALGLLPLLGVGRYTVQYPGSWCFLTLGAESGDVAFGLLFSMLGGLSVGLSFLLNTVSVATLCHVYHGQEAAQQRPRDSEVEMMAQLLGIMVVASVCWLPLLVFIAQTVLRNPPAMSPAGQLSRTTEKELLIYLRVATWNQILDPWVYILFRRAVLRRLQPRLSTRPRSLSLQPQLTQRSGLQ

Thromboxane A2 receptor [11] = molecular target: T5, Thromboxane A2 receptor; assay type: functional, cell-based; remark: listed apart in the source
[12] = molecular target: Voltage-gated inwardly rectifying potassium channel KCNH2 (Homo sapiens, UniProt Q12809); assay type: functional
Also: assay procedure not described here.

Chain of Histamine H3 receptor (Q9Y5N1 whole entry): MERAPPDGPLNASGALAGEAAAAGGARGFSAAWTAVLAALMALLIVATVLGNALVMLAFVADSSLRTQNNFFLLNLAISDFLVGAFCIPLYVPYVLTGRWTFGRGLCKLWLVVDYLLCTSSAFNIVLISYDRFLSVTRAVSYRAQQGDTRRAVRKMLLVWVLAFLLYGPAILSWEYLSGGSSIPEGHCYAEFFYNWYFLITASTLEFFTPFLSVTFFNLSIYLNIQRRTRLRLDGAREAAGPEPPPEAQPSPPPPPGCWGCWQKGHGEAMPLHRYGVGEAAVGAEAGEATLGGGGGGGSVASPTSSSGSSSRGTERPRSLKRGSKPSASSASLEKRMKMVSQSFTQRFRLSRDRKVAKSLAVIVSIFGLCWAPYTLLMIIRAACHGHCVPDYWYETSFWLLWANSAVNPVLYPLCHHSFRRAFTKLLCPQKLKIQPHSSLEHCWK
Chain of Mu-type opioid receptor (P35372 whole entry): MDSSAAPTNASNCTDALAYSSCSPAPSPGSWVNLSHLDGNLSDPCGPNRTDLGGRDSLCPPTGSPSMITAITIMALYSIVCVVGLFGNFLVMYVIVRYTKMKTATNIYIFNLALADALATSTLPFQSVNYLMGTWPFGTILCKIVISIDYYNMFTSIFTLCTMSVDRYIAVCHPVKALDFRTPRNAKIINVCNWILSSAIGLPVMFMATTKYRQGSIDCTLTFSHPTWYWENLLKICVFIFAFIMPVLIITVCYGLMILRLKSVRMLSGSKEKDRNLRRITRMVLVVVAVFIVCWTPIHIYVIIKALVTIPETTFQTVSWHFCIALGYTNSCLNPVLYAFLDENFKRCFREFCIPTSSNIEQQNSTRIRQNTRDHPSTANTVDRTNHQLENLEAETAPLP
Chain of cGMP-inhibited 3',5'-cyclic phosphodiesterase 3A (Q14432 whole entry): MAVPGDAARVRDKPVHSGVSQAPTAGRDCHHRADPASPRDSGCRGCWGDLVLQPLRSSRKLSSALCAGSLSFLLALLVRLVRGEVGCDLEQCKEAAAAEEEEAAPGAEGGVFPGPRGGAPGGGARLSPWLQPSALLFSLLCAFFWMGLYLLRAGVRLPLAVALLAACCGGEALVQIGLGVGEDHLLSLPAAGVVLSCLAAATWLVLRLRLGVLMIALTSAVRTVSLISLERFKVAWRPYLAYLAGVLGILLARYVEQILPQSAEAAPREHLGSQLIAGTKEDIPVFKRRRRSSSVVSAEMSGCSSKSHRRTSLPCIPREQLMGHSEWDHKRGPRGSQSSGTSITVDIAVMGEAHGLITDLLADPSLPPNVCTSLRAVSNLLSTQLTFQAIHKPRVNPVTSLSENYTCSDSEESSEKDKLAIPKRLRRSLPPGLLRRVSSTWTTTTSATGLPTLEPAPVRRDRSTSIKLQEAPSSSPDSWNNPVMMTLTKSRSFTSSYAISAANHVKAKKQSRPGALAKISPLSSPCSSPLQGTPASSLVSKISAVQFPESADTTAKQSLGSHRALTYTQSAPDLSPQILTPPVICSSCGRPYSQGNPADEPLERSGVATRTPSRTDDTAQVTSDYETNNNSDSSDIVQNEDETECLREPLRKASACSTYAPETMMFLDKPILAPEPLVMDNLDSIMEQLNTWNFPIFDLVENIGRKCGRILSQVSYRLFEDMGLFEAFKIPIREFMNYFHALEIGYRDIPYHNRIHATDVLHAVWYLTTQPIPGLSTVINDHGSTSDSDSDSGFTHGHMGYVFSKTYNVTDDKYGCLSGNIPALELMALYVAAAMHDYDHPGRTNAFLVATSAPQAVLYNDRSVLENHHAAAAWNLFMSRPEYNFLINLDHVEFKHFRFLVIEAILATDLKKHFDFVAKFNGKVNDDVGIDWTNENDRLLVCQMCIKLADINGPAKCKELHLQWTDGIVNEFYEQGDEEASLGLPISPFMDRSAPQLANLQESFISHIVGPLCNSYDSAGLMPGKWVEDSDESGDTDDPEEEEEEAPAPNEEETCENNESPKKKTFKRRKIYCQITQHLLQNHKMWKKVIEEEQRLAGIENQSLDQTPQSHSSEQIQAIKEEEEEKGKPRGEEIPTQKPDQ
Chain of D(3) dopamine receptor (P35462 whole entry): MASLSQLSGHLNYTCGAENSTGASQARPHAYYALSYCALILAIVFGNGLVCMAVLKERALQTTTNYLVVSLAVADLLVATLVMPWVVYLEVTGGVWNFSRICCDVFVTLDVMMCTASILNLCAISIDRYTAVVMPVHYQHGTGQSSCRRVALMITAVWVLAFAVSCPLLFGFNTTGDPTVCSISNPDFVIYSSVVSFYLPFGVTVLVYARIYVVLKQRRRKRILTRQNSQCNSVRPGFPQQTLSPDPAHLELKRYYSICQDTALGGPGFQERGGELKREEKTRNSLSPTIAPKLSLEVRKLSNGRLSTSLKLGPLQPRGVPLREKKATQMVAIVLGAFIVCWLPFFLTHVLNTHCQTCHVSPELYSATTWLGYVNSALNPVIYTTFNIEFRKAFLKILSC
Chain of Sodium-dependent noradrenaline transporter (P23975 whole entry): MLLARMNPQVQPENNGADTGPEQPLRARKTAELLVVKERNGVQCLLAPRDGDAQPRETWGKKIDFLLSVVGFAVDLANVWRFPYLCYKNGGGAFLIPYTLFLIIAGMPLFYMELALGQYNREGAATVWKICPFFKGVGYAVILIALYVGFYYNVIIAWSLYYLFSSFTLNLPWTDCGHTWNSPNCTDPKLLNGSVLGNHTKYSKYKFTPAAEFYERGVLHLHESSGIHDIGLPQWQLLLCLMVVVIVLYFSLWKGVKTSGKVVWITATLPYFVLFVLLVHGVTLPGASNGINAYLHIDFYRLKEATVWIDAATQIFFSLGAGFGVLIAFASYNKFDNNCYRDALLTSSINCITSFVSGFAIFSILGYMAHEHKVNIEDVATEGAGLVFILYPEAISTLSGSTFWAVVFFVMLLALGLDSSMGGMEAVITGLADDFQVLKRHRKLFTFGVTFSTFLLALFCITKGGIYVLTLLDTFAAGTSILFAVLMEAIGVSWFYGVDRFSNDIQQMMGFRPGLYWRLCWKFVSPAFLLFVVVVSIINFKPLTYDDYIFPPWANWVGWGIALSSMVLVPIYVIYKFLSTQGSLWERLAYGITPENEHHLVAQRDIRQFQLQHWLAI
Chain of Acetylcholinesterase (P22303 whole entry): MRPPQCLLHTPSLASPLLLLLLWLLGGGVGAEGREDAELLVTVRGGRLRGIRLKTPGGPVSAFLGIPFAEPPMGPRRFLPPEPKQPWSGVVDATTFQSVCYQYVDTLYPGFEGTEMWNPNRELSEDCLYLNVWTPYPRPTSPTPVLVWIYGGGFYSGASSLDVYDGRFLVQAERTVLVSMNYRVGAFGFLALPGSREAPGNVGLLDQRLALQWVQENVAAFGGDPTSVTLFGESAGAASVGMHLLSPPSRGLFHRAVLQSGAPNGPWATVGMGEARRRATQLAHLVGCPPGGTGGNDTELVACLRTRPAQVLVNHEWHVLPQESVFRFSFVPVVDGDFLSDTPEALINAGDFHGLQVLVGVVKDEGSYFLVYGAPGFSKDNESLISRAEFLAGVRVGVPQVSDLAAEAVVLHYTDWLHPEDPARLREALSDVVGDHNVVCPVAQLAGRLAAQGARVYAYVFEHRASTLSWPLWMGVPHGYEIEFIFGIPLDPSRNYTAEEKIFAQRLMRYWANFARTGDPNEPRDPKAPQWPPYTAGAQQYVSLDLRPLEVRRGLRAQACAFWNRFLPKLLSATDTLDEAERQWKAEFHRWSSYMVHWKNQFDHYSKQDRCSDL
Chain of 3',5'-cyclic-AMP phosphodiesterase 4A (P27815 whole entry): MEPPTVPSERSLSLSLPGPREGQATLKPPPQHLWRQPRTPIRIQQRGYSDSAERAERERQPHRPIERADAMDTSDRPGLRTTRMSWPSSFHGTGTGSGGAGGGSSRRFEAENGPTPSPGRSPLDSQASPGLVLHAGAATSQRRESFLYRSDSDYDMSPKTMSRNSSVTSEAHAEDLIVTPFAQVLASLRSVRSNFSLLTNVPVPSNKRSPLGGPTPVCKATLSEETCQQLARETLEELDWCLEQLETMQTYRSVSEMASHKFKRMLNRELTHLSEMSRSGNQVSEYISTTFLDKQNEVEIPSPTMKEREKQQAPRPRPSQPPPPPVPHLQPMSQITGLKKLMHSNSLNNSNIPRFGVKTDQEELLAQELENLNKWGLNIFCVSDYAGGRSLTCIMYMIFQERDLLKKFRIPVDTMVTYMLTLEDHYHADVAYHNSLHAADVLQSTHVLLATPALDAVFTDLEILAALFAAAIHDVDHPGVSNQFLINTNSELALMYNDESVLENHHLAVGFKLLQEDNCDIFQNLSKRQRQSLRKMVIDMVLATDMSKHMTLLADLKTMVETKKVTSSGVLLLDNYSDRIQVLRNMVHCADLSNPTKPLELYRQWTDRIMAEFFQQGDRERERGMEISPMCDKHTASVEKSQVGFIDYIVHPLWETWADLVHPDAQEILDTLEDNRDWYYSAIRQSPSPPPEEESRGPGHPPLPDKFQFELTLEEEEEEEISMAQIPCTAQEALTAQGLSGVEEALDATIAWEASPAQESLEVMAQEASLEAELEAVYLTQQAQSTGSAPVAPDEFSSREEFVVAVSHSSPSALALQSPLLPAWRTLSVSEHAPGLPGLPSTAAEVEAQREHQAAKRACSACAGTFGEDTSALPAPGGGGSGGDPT
Chain of D(1A) dopamine receptor (P21728 whole entry): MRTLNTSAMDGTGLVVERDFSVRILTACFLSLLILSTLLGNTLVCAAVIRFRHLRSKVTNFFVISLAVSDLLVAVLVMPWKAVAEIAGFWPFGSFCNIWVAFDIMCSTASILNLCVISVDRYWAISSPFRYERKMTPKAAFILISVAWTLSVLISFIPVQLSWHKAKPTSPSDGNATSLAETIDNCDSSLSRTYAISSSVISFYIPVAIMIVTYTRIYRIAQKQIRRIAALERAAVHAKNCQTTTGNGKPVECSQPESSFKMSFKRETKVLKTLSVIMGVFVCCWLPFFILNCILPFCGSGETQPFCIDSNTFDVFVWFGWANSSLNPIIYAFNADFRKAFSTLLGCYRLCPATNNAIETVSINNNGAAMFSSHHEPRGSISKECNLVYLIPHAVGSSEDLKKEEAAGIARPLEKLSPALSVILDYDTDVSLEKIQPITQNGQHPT

OC[C@H]1O[C@@H](c2ccc(F)c(Cc3cc4ccccc4s3)c2)[C@H](O)[C@@H](O)[C@@H]1O [IPRAGLIFLOZIN]
AC50 (Acetylcholinesterase): > 30 µM | AC50 [1]: > 30 µM | AC50 (D(1A) dopamine receptor): > 30 µM | AC50 (D(3) dopamine receptor): > 30 µM | AC50 (Histamine H3 receptor): > 30 µM | AC50 [2]: > 30 µM | AC50 [3]: > 30 µM | AC50 [4]: > 30 µM | AC50 (Mu-type opioid receptor): > 30 µM | AC50 [5]: > 30 µM | AC50 [6]: > 30 µM | AC50 [7]: > 30 µM | AC50 [8]: > 30 µM | AC50 [9]: > 30 µM | AC50 (Thromboxane A2 receptor [10]): > 30 µM | AC50 (Thromboxane A2 receptor [11]): > 30 µM

CCc1nc(C(N)=O)c(Nc2ccc(N3CCC(N4CCN(C)CC4)CC3)c(OC)c2)nc1NC1CCOCC1 [GILTERITINIB]
AC50 (Acetylcholinesterase): > 30 µM | AC50 [1]: 16.4 µM | AC50 (D(1A) dopamine receptor): > 30 µM | AC50 (D(3) dopamine receptor): 26.7 µM | AC50 (Histamine H3 receptor): 13.7 µM | AC50 [2]: > 30 µM | AC50 [3]: > 30 µM | AC50 [4]: > 30 µM | AC50 (Mu-type opioid receptor): > 30 µM | AC50 [5]: > 30 µM | AC50 [6]: 2.44 µM | AC50 [7]: > 30 µM | AC50 [8]: > 30 µM | AC50 [9]: > 30 µM | AC50 (Thromboxane A2 receptor [10]): > 30 µM | AC50 (Thromboxane A2 receptor [11]): > 0.3 µM

CN1CCCCC1CCN1c2ccccc2Sc2ccc([S+](C)[O-])cc21 (stereo not drawn) [MESORIDAZINE]
AC50 (Acetylcholinesterase): > 30 µM | AC50 [1]: 0.153 µM | AC50 (D(1A) dopamine receptor): 0.0712 µM | AC50 (D(3) dopamine receptor): 0.0197 µM | AC50 (Histamine H3 receptor): 21.9 µM | AC50 [2]: 0.214 µM | AC50 [3]: > 30 µM | AC50 [4]: > 30 µM | AC50 (Mu-type opioid receptor): 2.99 µM | AC50 [5]: > 30 µM | AC50 [6]: > 30 µM | AC50 [7]: > 30 µM | AC50 [8]: > 30 µM | AC50 [9]: 28.8 µM | AC50 (Thromboxane A2 receptor [10]): > 30 µM | AC50 (Thromboxane A2 receptor [11]): > 30 µM

N#Cc1ccc2c(c1)N(CCCN1CCC(O)CC1)c1ccccc1S2 [PERICIAZINE]
AC50 (Acetylcholinesterase): 29.1 µM | AC50 [1]: 5.87 µM | AC50 (Histamine H3 receptor): > 30 µM | AC50 [2]: 8.8 µM | AC50 [3]: > 30 µM | AC50 [12]: 5.82 µM | AC50 [4]: > 30 µM | AC50 (Mu-type opioid receptor): 4.59 µM | AC50 [5]: > 30 µM | AC50 [6]: > 30 µM | AC50 [7]: > 30 µM | AC50 [8]: 21.5 µM | AC50 [9]: 5.08 µM | AC50 (Thromboxane A2 receptor [10]): > 30 µM | AC50 (Thromboxane A2 receptor [11]): 17 µM

CN(C)[C@@H]1C(O)=C(C(N)=O)C(=O)[C@@]2(O)C(O)=C3C(=O)c4c(O)ccc(Cl)c4[C@@](C)(O)[C@H]3C[C@@H]12 [CHLORTETRACYCLINE]
AC50 (Acetylcholinesterase): > 30 µM | AC50 [1]: > 30 µM | AC50 (D(1A) dopamine receptor): > 30 µM | AC50 (D(3) dopamine receptor): > 30 µM | AC50 (Histamine H3 receptor): > 30 µM | AC50 [2]: > 30 µM | AC50 [3]: > 30 µM | AC50 [12]: > 30 µM | AC50 [4]: > 30 µM | AC50 (Mu-type opioid receptor): > 30 µM | AC50 [5]: > 30 µM | AC50 [7]: > 30 µM | AC50 [8]: > 30 µM | AC50 [9]: > 30 µM | AC50 (Thromboxane A2 receptor [10]): > 30 µM | AC50 (Thromboxane A2 receptor [11]): > 30 µM

CC1=C(/C=C/C(C)=C/C=C/C(C)=C/C(=O)O)C(C)(C)CCC1 [TRETINOIN]
AC50 (Acetylcholinesterase): > 30 µM | AC50 [1]: > 30 µM | AC50 (D(1A) dopamine receptor): > 30 µM | AC50 (D(3) dopamine receptor): 22.6 µM | AC50 (Histamine H3 receptor): > 30 µM | AC50 [2]: > 30 µM | AC50 [3]: > 30 µM | AC50 [4]: > 30 µM | AC50 (Mu-type opioid receptor): > 30 µM | AC50 [5]: > 30 µM | AC50 [6]: 1.27 µM | AC50 [9]: 10.5 µM | AC50 (Thromboxane A2 receptor [10]): > 30 µM | AC50 (Thromboxane A2 receptor [11]): 14.3 µM

CC[C@H](C)C[C@H](C)CCCCCCCCC(=O)N[C@H]1C[C@@H](O)[C@@H](NCCN)NC(=O)[C@@H]2[C@@H](O)CCN2C(=O)[C@H]([C@H](O)CCN)NC(=O)[C@H]([C@H](O)[C@@H](O)c2ccc(O)cc2)NC(=O)[C@@H]2C[C@@H](O)CN2C(=O)[C@H]([C@@H](C)O)NC1=O [CASPOFUNGIN]
AC50 (Acetylcholinesterase): > 30 µM | AC50 [1]: 10.8 µM | AC50 (D(1A) dopamine receptor): 8.83 µM | AC50 (D(3) dopamine receptor): > 30 µM | AC50 (Histamine H3 receptor): > 30 µM | AC50 [2]: > 30 µM | AC50 [3]: > 30 µM | AC50 [4]: > 30 µM | AC50 (Mu-type opioid receptor): 5.12 µM | AC50 [5]: > 30 µM | AC50 [6]: > 30 µM | AC50 [7]: 3.63 µM | AC50 [9]: 5.03 µM | AC50 (Thromboxane A2 receptor [10]): > 30 µM | AC50 (Thromboxane A2 receptor [11]): > 30 µM
